Tests used:
human MC3 receptors = target: T1, human MC3 receptors (Homo sapiens, UniProt P41968); test: In vitro agonist potency (EC50) at melanocortin receptor type 3, cAMP in recombinant cell line; format: cell-based
T1 construct: stably transfected with full length cDNA encoding human MC1 or MC3 receptors; expressed in transfected cells
Procedure: Measurement of In Vitro Agonist Potency (EC50) of Compounds Against Melanocortin Receptors Type 1 and 3 (MC1 and MC3).
Activation of melanocortin (MC) receptors by agonists results in activation of intracellular adenylate cyclase enzymes that synthesise the second messenger signalling molecule, adenosine 3′,5′-cyclic monophosphate (cAMP). Changes in cAMP levels following treatment of recombinant MC1 and MC3 cell lines with test compound were measured and an MC1 and MC3 potency estimate (EC50) calculated as follows: […]
Human embryonic kidney (HEK) or Chinese hamster ovary cell lines stably transfected with full length cDNA encoding human MC1 or MC3 receptors, respectively, were established using standard molecular biology methods. Test compounds were dissolved in dimethyl sulfoxide (DMSO) at 4 mM. 11 point half log unit increment dilution series of test compound, typically starting at 50 uM were prepared in a buffer comprised of phosphate buffered saline (PBS), 2.5% DMSO and 0.05% pluronic F-127 surfactant. Freshly cultured cells at 80-90% confluence were harvested and re-suspended in Dulbecco's Modified Eagle's Medium (DMEM). Cells (10,000 for MC3, 20,000 for MC1) were added to the test compound dilution series in a 384 well assay plate and incubated for 1 hour at 37° C. The relative cAMP concentration in each well was then measured using a β-galactosidase enzyme fragment complementation method purchased in kit form as the Discoverx cAMP II kit from GE Healthcare/Amersham Biosciences UK. In the case of MC1,3-Isobutyl-1-methylxanthine (IBMX) at a concentration of 750 μM was included in DMEM as the cells were re-suspended for assay. […] Sigmoidal curves were fitted to plots of log10 inhibitor concentration vs percent effect using a custom made software application called SIGHTS and EC50 estimates determined by the software as the concentration of test compound giving an effect half way between the bottom and top asymptotes of the sigmoidal dose response curve. Each experiment included an EC50 determination for alpha melanocyte stimulating hormone, which was used as a standard to track assay consistency and allow fair comparison between EC50 estimates obtained in different experiments.

MC4 receptor = MC4 receptor (Homo sapiens, UniProt P32245); test: MC4 EC50 functional potency (protocol E of US2005/0176772 / WO 2005/077935); format: cell-based
Procedure: The compounds of formula (I) of the present invention have utility as MCR4 agonists in the treatment of various disease states.
MC5 and MC4 EC50 activity was determined as described by assay protocols D and E, respectively, in US2005/0176772 (pages 28-30).

[1] = In vitro metabolism rate determination, human liver microsome (HLM) assay; format: in vitro ADME; details: human, liver microsomes, read-out: HLM: Clint, app
In short: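 Human liver microsomes at 0.5 nmol cytochrome P450/ml with 1 μM substrate, pre-warmed 5 min at 37° C, reaction started with NADP; samples taken 0–60 min and terminated. Substrate loss measured; first-order rate constant from log-linear regression converted to half-life or Clint (μl/min/mg protein).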

T1 sequence (P41968 whole entry): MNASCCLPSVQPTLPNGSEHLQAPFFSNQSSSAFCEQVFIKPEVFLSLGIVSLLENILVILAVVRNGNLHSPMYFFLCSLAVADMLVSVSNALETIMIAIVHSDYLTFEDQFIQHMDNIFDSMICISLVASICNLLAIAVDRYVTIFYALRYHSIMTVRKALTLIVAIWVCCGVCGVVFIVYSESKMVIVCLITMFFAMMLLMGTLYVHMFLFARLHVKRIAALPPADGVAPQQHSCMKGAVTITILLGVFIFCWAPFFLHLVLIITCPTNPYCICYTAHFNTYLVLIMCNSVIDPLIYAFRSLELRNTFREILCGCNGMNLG
Sequence of MC4 receptor (P32245 whole entry): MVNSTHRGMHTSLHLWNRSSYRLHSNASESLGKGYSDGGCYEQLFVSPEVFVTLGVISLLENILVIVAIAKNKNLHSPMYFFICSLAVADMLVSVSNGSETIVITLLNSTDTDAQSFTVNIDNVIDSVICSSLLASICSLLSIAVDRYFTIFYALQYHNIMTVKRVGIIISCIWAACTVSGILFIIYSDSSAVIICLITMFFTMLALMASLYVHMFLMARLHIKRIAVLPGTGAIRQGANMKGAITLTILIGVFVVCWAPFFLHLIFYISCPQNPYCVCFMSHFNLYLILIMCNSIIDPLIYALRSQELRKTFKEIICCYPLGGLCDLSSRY

Compound	EC50 (human MC3 receptors) [nM]	EC50 (MC4 receptor) [nM]	microsomal CLint at 1 μM [1] [µL/min/mg]
COc1ccc([C@@H]2CN(c3ccc(C#N)nn3)C[C@H]2C(=O)N2CCC[C@@H](c3ccc(Cl)cc3)N(C(C)=O)CC2)c(F)c1 [Example 67]	177	7.73	21.4
CC(=O)N1CCN(C(=O)[C@@H]2CN(c3ccc4nncn4n3)C[C@H]2c2ccc(Cl)cn2)CCC[C@H]1c1ccc(Cl)cc1 [Example 6, 6-[(3S,4S)-3-{[4-acetyl-5S-(4-chlorophenyl)-1,4-diazocan-1-yl]carbonyl}-4-(5-chloropyridin-2-yl)pyrrolidin-1-yl][1,2,4]triazolo[4,3-b]pyridazine]	300	1.12	13.5
COc1ccc([C@@H]2CN(C(C)(C)C)C[C@H]2C(=O)N2CCC[C@@H](c3ccc(Cl)cc3)N(C(C)=O)CC2)c(F)c1 [Example 70]	4040	20.6	28.3
CC(C)C(=O)N1CCN(C(=O)[C@@H]2CN(C(C)(C)C)C[C@H]2c2ccc(F)cc2F)CCC[C@H]1c1ccc(Cl)cc1 [Example 11]	3390	6.73	23.6
COc1ccc([C@@H]2CN(c3ccc(=O)[nH]n3)C[C@H]2C(=O)N2CCC[C@@H](c3ccc(Cl)cc3)N(C(C)=O)CC2)c(F)c1 [Example 68, 6-[(3S,4R)-3-{[4-acetyl-5S-(4-chlorophenyl)-1,4-diazocan-1-yl]carbonyl}-4-(2-fluoro-4-methoxyphenyl)pyrrolidin-1-yl]pyridazin-3(2H)-one]	728	4.3	13.7
CC(C)(C)C(=O)N1CCN(C(=O)[C@@H]2CN(C(C)(C)C)C[C@H]2c2ccc(F)cc2F)CCC[C@H]1c1ccc(Cl)cc1 [Example 15]	3180	10.6	57.4
CS(=O)(=O)N1CCN(C(=O)C2CN(c3ccc(=O)[nH]n3)CC2c2ccc(F)cc2F)CCCC1c1ccc(F)cc1 (stereo not drawn) [Example 78]	3320	40.3	54
CC(C)(C)N1C[C@@H](C(=O)N2CCC[C@@H](c3ccc(Cl)cc3)N(C(=O)C3CCC3)CC2)[C@H](c2ccc(F)cc2F)C1 [Example 14]	8590	13.4	82.8
COC(=O)N1CCN(C(=O)[C@@H]2CN(C(C)(C)C)C[C@H]2c2ccc(OC)cc2F)CCCC1c1ccc(Cl)cc1 (stereo partly drawn) [Example 91]	7380	20.2	46.9
CC(=O)N1CCN(C(=O)[C@@H]2CN(c3ccc(C#N)nn3)C[C@H]2c2ccc(Cl)cn2)CCC[C@H]1c1ccc(Cl)cc1 [Example 72]	88.6	26.1	13
CCCC(=O)N1CCN(C(=O)[C@@H]2CN(c3cccnn3)C[C@H]2c2ccc(F)cc2F)CCCC1c1ccccc1 (mixture of isomers) [Example 101]	114	7.12	143
CCC(=O)N1CCN(C(=O)[C@@H]2CN(C(C)(C)C)C[C@H]2c2ccc(F)cc2F)CCC[C@H]1c1ccc(Cl)cc1 [Example 10]	4190	17.3	22.1
CS(=O)(=O)N1CCN(C(=O)[C@@H]2CN(c3ccc(=O)[nH]n3)C[C@H]2c2ccc(F)cc2F)CCCC1c1ccc(Cl)cc1 (mixture of isomers) [Example 79]	1820	17.1	22
CNC(=O)N1CCN(C(=O)[C@@H]2CN(c3cccnn3)C[C@H]2c2ccc(F)cc2F)CCCC1c1ccccc1 (mixture of isomers) [Example 73]	544	12.2	53
COC(=O)N1CCN(C(=O)[C@@H]2CN(c3ccc(=O)n(C)n3)C[C@H]2c2ccc(OC)cc2F)CCC[C@H]1c1ccc(Cl)cc1 [Example 118]	8200	1.83	23.2
CS(=O)(=O)N1CCN(C(=O)[C@@H]2CN(c3ccc(C#N)nn3)C[C@H]2c2ccc(F)cc2F)CCCC1c1ccc(Cl)cc1 (mixture of isomers) [Example 76]	604	50	11
COC(=O)N1CCN(C(=O)[C@@H]2CN(c3ccc(=O)n(C)n3)C[C@H]2c2ccc(F)cc2F)CCC[C@H]1c1ccc(Cl)cc1 [Example 66, methyl (8S-4-chlorophenyl)-4-{[(3S,4R)-4-(2,4-difluorophenyl)-1-(1-methyl-6-oxo-1,6-dihydropyridazin-3-yl)pyrrolidin-3-yl]carbonyl}-1,4-diazocane-1-carboxylate]	1220	2.99	20.5
COC(=O)N1CCN(C(=O)[C@@H]2CN(c3ccc(=O)n(C)n3)C[C@H]2c2ccc(OC)cc2F)CCC[C@@H]1c1ccc(Cl)cc1 [Example 119, methyl 8R-(4-chlorophenyl)-4-{[(3S,4R)-4-(2-fluoro-4-methoxyphenyl)-1-(1-methyl-6-oxo-1,6-dihydropyridazin-3-yl)pyrrolidin-3-yl]carbonyl}-1,4-diazocane-1-carboxylate]	11200	8.53	18.8
COC(=O)N1CCN(C(=O)[C@@H]2CN(c3ccc(=O)n(C)n3)C[C@H]2c2ccc(F)cc2F)CCC[C@@H]1c1ccc(Cl)cc1 [Example 56]	1220	2.99	20.5
CC(C)C(=O)N1CCN(C(=O)[C@@H]2CN(C(C)(C)C)C[C@H]2c2ccc(Cl)cn2)CCC[C@H]1c1ccc(Cl)cc1 [Example 20, 1-{[(3S,4S)-1-tert-butyl-4-(5-chloropyridin-2-yl)pyrrolidin-3-yl]carbonyl}-5S-(4-chlorophenyl)-4-isobutyryl-1,4-diazocane]	1660	5.46	18.1
COc1ccc([C@@H]2CN(c3ccc(=O)n(C)n3)C[C@H]2C(=O)N2CCCC(c3ccc(Cl)cc3)N(S(C)(=O)=O)CC2)c(F)c1 (single isomer, unassigned) [Example 117]	8360	34.9	35.1
COC(=O)N1CCN(C(=O)[C@@H]2CN(c3ccc(=O)[nH]n3)C[C@H]2c2ccc(OC)cc2F)CCC[C@@H]1c1ccc(Cl)cc1 [Example 90, methyl 8R-(4-chlorophenyl)-4-{[(3S,4R)-4-(2-fluoro-4-methoxyphenyl)-1-(6-oxo-1,6-dihydropyridazin-3-yl)pyrrolidin-3-yl]carbonyl}-1,4-diazocane-1-carboxylate]	456	1.83	11.7
CC(=O)N1CCN(C(=O)[C@@H]2CN(c3cccnn3)C[C@H]2c2ccc(F)cc2F)CCCC1c1ccccc1 (mixture of isomers) [Example 103]	332	9.79	102
